In article PMC8300687, “A Fine-Tuned Lipophilicity/Hydrophilicity Ratio Governs Antibacterial Potency and Selectivity of Bifurcated Halogen Bond-Forming NBTIs” (Antibiotics, 2021):
Values after ≈ are worked out from the molar mass of the structure shown. Read-outs that look alike come from different tables or passages of the source.

How the values were obtained:
[1] = system: E. coli (QA-11.7); assay: MIC broth microdilution, E. coli QA-11.7; format: cell-based; conditions: Escherichia coli, 20 h, read-out: MIC E. coli (QA-11.7)
Method: (§1) Antimicrobial testing was carried out by the broth microdilution method in 96-well plate format following the Clinical and Laboratory Standards Institute (CLSI) guidelines and European Committee on Antimicrobial Susceptibility Testing (EUCAST) recommendations. Bacterial suspension of specific bacterial strain equivalent to 0.5 McFarland turbidity standard was diluted with cation-adjusted Mueller Hinton broth with TES (Thermo Fisher Diagnostic, Landsmeer, The Netherlands), to obtain a final inoculum of 10^5 CFU/mL. Compounds dissolved in DMSO and inoculum were mixed together and incubated for 18–20 h at 35 °C. Suspensions of Mycobacterium sp. were prepared into a tube of Middelbrook 7H9 broth supplemented with 5% OADC (Thermo Scientific, Trek Diagnostic Systems, West Sussex, UK) and incubated for at least 10 days. After incubation the minimal inhibitory concentration (MIC) values were determined by visual inspection as the lowest dilution of compounds showing no turbidity. Tetracycline was used as a positive control on every assay plate.

[2] = system: S. aureus (ATCC 29213); assay: MIC broth microdilution, S. aureus ATCC 29213; format: cell-based
Method: as §1

[3] = system: MRSA (QA-11.2); assay: MIC broth microdilution, MRSA QA-11.2; format: cell-based, methicillin-resistant S. aureus; conditions: Staphylococcus aureus, 20 h, read-out: MIC MRSA (QA-11.2)
Method: as §1

[4] = system: E. coli D22; assay: MIC broth microdilution, E. coli D22; format: cell-based; conditions: Escherichia coli
Method: as §1

[5] = biological target: T1, S. aureus DNA gyrase (Staphylococcus aureus, UniProt P20831); assay: biochemical; format: biochemical; conditions: fluorescence plate supercoiling assay, mean of two to four measurements
T1 construct: purchased Inspiralis (Norwich, UK)
T1 sequence (P20831 whole entry): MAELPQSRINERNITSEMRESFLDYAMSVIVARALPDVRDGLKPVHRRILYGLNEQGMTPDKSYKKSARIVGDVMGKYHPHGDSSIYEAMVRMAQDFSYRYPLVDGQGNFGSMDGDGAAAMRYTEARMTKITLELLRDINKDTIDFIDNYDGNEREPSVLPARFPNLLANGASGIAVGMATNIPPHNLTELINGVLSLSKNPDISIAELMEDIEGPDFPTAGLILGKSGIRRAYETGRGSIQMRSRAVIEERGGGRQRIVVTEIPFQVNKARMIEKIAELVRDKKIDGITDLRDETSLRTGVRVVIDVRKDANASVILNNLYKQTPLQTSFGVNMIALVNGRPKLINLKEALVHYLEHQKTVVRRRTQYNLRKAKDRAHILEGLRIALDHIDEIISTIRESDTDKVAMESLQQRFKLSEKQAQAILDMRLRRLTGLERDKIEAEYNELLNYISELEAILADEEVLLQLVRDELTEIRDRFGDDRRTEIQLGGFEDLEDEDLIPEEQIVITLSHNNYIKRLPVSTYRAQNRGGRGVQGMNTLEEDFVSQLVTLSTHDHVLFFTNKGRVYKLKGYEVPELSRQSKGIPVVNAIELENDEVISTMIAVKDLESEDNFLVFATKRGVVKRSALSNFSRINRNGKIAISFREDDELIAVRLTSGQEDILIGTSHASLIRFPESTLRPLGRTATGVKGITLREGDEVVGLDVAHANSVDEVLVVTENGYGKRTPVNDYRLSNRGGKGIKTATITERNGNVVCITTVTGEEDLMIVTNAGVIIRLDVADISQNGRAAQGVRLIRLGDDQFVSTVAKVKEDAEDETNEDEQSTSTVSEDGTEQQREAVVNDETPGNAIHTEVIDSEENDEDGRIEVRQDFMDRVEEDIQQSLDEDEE
T1 sequence (P0A0K8 whole entry partner): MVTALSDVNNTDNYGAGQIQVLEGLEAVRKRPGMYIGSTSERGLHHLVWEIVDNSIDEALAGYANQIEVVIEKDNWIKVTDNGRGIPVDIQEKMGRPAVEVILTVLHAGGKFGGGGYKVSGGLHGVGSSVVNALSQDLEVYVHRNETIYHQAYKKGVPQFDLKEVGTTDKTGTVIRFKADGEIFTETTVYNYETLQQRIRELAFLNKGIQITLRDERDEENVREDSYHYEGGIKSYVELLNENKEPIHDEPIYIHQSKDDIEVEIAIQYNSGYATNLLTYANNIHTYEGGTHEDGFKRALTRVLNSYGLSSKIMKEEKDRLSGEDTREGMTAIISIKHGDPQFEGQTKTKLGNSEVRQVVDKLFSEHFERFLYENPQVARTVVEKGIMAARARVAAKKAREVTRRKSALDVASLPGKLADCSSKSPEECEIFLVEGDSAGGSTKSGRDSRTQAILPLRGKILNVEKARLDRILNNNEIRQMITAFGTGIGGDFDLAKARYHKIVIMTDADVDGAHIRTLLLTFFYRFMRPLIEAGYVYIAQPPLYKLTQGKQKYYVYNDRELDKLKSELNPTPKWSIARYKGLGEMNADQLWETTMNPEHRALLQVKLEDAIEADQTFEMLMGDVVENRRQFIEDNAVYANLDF
Method: (§2) A Gyrase Supercoiling High Throughput Plate assay kit, purchased from Inspiralis (Norwich. UK) was used to determine IC50 values of compounds on S. aureus and E. coli. […] Biotinylated oligonucleotide in wash buffer was immobilized onto the wells, and the excess oligonucleotide was washed off with wash buffer and ultrapure water. […] The reactions were stopped by adding the TF buffer (50 mM NaOAc (pH 4.7), 50 mM NaCl, and 50 mM MgCl2) to allow the triplex formation (biotin-oligonucleotide-plasmid) for additional 30 min. Afterward, the unbound plasmid was washed off using TF buffer, and the solution of Promega Diamond dye in T10 buffer (10 mM Tris-HCl (pH 8.0), 1 mM EDTA) was added. […] IC50 value represents the mean of two to four independent measurements.

[6] = biological target: T2, E. coli Topo IV (Escherichia coli, UniProt P0AFI2); assay: Topo IV Relaxation High Throughput Plate assay, E. coli; format: biochemical
T2 construct: purchased Inspiralis (Norwich, UK)
T2 sequence (P0AFI2 whole entry): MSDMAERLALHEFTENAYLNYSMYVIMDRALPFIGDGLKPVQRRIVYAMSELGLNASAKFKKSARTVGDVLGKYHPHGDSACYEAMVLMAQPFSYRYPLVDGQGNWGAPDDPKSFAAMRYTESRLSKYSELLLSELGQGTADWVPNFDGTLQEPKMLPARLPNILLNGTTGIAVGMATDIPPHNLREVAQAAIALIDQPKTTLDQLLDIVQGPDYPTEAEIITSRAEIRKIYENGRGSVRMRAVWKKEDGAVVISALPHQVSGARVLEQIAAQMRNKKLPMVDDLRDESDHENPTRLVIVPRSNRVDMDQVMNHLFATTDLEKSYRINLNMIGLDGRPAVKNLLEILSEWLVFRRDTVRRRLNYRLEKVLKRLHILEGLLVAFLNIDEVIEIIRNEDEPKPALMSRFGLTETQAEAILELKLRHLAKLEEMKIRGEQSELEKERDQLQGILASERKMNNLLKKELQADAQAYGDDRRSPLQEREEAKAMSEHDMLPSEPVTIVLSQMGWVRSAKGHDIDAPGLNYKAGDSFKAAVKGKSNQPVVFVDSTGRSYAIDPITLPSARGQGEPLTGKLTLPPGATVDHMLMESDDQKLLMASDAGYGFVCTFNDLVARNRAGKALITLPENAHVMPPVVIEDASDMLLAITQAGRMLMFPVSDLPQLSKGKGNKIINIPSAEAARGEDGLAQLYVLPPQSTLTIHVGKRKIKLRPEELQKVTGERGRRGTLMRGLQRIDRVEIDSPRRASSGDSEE
T2 sequence (P20083 whole entry, further chain): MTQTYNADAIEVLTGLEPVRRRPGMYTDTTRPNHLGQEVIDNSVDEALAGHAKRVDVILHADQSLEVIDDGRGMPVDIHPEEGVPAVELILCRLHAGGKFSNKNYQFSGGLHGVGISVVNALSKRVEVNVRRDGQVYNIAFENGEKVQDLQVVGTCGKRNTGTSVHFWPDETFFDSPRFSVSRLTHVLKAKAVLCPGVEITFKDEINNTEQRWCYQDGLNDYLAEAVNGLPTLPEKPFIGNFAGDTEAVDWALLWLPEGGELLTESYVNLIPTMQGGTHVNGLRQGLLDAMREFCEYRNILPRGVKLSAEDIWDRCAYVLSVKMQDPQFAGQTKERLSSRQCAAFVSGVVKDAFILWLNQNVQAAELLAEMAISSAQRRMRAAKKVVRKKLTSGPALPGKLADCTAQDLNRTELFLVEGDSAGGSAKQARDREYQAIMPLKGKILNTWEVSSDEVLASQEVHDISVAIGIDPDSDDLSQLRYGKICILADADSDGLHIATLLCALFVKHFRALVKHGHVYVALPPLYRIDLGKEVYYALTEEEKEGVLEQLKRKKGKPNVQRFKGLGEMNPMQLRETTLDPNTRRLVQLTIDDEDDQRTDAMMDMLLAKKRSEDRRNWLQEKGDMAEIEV
Method: A Topo IV Relaxation High Throughput Plate assay kit, purchased from Inspiralis (Norwich. UK) was used to determine IC50 values of compounds on S. aureus and E. coli. […] Biotinylated oligonucleotide in wash buffer was immobilized onto the wells, and the excess oligonucleotide was washed off with wash buffer and ultrapure water. 1.5 U of S. aureus or E. coli […] enzyme was incubated together with 0.75 μg of supercoiled pNO1 plasmid as a substrate in the presence of 3 μL inhibitor solution in 10% DMSO and 0.008% Tween 20 at 37 °C for 30 min in a final reaction volume of 30 μL in dilution buffer (50 mM Tris-HCl (pH 7.5), 1 mM DTT, 1 mM EDTA, 40% (w/v) glycerol for S. aureus and 40 mM HEPES, KOH (pH 7.6), 100 mM potassium glutamate, 1 mM DTT, 1 mM EDTA, and 40% (v/v) glycerol for E. coli). The reactions were stopped by adding the TF buffer (50 mM NaOAc (pH 4.7), 50 mM NaCl, and 50 mM MgCl2) to allow the triplex formation (biotin-oligonucleotide-plasmid) for additional 30 min. Afterward, the unbound plasmid was washed off using TF buffer, and the solution of Promega Diamond dye in T10 buffer (10 mM Tris-HCl (pH 8.0), 1 mM EDTA) was added. […] IC50 value represents the mean of two to four independent measurements.

[7] = system: S. pneumoniae (QA-10/02); assay: MIC broth microdilution, S. pneumoniae; format: cell-based; conditions: Streptococcus pneumoniae
Method: as §1

[8] = system: MRSA (QA-11.4); assay: MIC broth microdilution, MRSA QA-11.4; format: cell-based, methicillin-resistant S. aureus; conditions: Staphylococcus aureus, 20 h, read-out: MIC MRSA (QA-11.4)
Method: as §1

[9] = biological target: T3, E. coli DNA gyrase (Escherichia coli, UniProt P0AES4); assay: Gyrase Supercoiling High Throughput Plate assay, E. coli; format: biochemical
T3 construct: purchased Inspiralis (Norwich, UK)
T3 sequence (P0AES4 whole entry): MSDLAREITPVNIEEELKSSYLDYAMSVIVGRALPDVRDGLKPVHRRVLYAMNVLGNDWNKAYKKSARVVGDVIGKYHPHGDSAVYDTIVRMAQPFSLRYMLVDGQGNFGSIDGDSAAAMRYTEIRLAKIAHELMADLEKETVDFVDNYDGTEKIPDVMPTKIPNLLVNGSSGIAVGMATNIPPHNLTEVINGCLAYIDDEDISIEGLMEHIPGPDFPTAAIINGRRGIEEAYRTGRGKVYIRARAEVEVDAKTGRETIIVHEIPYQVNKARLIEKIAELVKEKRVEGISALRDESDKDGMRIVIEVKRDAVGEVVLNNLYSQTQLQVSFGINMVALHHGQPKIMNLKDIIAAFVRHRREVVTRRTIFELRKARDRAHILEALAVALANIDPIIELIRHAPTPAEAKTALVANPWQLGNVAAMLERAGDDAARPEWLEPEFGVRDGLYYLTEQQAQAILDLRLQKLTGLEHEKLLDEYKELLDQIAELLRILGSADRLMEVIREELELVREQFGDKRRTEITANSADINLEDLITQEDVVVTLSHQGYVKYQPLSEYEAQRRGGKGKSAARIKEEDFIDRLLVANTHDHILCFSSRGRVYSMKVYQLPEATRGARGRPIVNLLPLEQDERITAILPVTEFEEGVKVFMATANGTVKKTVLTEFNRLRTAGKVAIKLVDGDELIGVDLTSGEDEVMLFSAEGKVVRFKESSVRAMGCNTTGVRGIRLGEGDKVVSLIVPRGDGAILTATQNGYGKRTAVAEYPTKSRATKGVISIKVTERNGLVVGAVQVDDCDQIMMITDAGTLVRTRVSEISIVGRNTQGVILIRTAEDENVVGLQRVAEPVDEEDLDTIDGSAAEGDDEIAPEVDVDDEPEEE
Method: as §2

[10] = system: E. coli N43 (CGSC# 5583); assay: MIC broth microdilution, E. coli N43; format: cell-based; conditions: for MIC: Escherichia coli
Method: as §1

[11] = PAMPA permeability; conditions: for Papp at 4 h: PAMPA
Method: (§3) Prior to the measurements of solubility and permeability isocratic HPLC methods were developed. […] The individual method parameters for each compound are given in the Supplementary Materials Table S1.
A 96-well precoated three-layer PAMPA plates (Corning® Gentest™ Pre-coated PAMPA Plate System, Corning, NY, USA) were used according to the manufacturer’s instructions and as described previously with 300 µL of the donor solutions in the bottom compartment and 200 µL of the acceptor solution (pH 7.4 PBS) in the upper compartment at 37 °C and a 4-h incubation time. The initial and end donor solutions were injected at a 5 µL injection volume. The initial donor solutions were also diluted 100-fold and injected at a 100 µL injection volume to serve as external references for the end acceptor solutions which were injected at the same injection volume. The permeability calculations were made with a manufacturer-provided Excel spreadsheet directly from the measured peak areas accounting for the relevant dilutions and injection volumes.

[12] = Equilibrium solubility at pH 6.8; conditions: phosphate buffered saline, 37 °C, pH 6.8, aqueous buffer, thermodynamic from solid
Method: as §3
The vials were then placed in a homogenizer (Next Advance Bullet Blender, Troy, NY, USA) for 5 min ad speed setting “2” after which they were kept in a thermostated shaker (Tehtnica HeatMix, Domel, Slovenia) at 37 °C and 1200 RPM for 24 h. […] Twenty µL of these solutions were injected for the HPLC analysis by the described methods (Supplementary Materials Table S1). External standards for calibration were made in a mobile phase with 5% acetonitrile in a range of 30–90 mg/L and injected at 20 µL injection volumes.

[13] = Staphylococcus aureus, ATCC29213, read-out: MIC S. aureus (ATCC 29213)
[14] = Staphylococcus aureus, ATCC29213; S. aureus ATCC 29213; read-out: S. aureus MIC (converted)
[15] = read-out: E. coli N43 MIC in molar
[16] = read-out: MIC E. coli N43 (CGSC# 5583)
[17] = multi-resistant isolate (ampicillin, azithromycin, cefotaxime, ertapenem, imipenem and others)
[18] = resistant to cefoxitin, chloramphenicol, clindamycin, linezolid, tetracycline, thiamulin, trimethoprim
[19] = mean of two to four measurements, read-out: Topoisomerase IV IC50 E. coli
[20] = Staphylococcus aureus, ATCC29213; read-out: MIC S. aureus (ATCC 29213)

COc1ccc2nccc(CCN3CCC(NC(=O)c4cn5cccc(C#N)c5n4)CC3)c2n1 [Compound 7, 8-Cyano-N-(1-(2-(6-methoxy-1,5-naphthyridin-4-yl)ethyl)piperidin-4-yl)imidazo[1,2-a]pyridine-2-carboxamide]
MIC [1]: > 128 µg/mL | MIC [2, 13]: > 128 µg/mL | MIC [2, 14]: 281 µM | MIC [3]: > 128 µg/mL | MIC ([4]; D22, read-out: MIC E. coli D22): > 128 µg/mL | IC50 [5]: > 100000 nM | IC50 [6]: > 100000 nM | MIC [7]: 128 µg/mL (≈ 281 µM) | MIC [8]: > 128 µg/mL | IC50 [9]: > 100000 nM | MIC [10, 15]: 281 µM | MIC [10, 16]: > 128 µg/mL | Papp at 4 h ([11]; pH 7.4): 2.6 ×10⁻⁶ cm/s | PAMPA permeability classification [low/high] ([11]; relative to reference drugs): int erm ediat e | solubility thermodynamic at 24 h [12]: 883 µg/mL (≈ 1940 µM)

COc1ccc2nccc(CCN3CCC(NCc4ccc(Cl)cc4)CC3)c2n1 [Compound 13]
MIC [1, 17]: 1 µg/mL (≈ 2.43 µM) | MIC [2, 13]: 0.125 µg/mL | MIC [2, 14]: 0.3 µM | MIC [3, 18]: 0.25 µg/mL (≈ 0.608 µM) | MIC ([4]; D22, mutation in the lpxC gene that increases membrane permeability, read-out: MIC E. coli D22): 2 µg/mL (≈ 4.87 µM) | IC50 [6, 19]: 31 nM | MIC [7]: 0.5 µg/mL (≈ 1.22 µM) | MIC ([8]; resistant to cefoxitin): 0.5 µg/mL (≈ 1.22 µM) | MIC [10, 15]: 1.22 µM | MIC [10, 16]: 0.5 µg/mL | Papp at 4 h [11]: > 2.7 ×10⁻⁶ cm/s | Papp at 4 h ([11]; pH 7.4): 13.2 ×10⁻⁶ cm/s | solubility thermodynamic at 24 h [12]: 119 µg/mL (≈ 290 µM)

COc1ccc2nccc(CCN3CCC(NCc4ccc(Br)cc4)CC3)c2n1 [Compound 14]
MIC [1, 17]: 1 µg/mL (≈ 2.2 µM) | MIC [2, 14]: 0.07 µM | MIC [2, 20]: 0.031 µg/mL | MIC [3]: 0.125 µg/mL (≈ 0.274 µM) | MIC ([4]; D22, read-out: MIC E. coli D22): 0.125 µg/mL (≈ 0.274 µM) | IC50 [6, 19]: 42 ± 3 nM | MIC [7]: 0.125 µg/mL (≈ 0.274 µM) | MIC [8]: 0.125 µg/mL (≈ 0.274 µM) | MIC [10, 15]: 0.27 µM | MIC [10, 16]: 0.125 µg/mL | Papp at 4 h [11]: > 2.7 ×10⁻⁶ cm/s | Papp at 4 h ([11]; pH 7.4): 31.5 ×10⁻⁶ cm/s | solubility thermodynamic at 24 h [12]: 72 µg/mL (≈ 158 µM)

COc1ccc2nccc(CCN3CCC(NCc4ccc(I)cc4)CC3)c2n1 [Compound 15]
MIC [1, 17]: 1 µg/mL (≈ 1.99 µM) | S. aureus MIC in molar ([2]; S. aureus ATCC 29213): 0.016 µM | MIC ([2]; Staphylococcus aureus, ATCC29213, 20 h; S. aureus ATCC 29213; read-out: S. aureus MIC (converted)): 0.01 µM | MIC [2, 20]: 0.0078 µg/mL | MIC [3, 18]: 0.0312 µg/mL (≈ 0.0622 µM) | MIC ([4]; D22, read-out: MIC E. coli D22): 0.125 µg/mL (≈ 0.249 µM) | IC50 [6, 19]: 21 ± 1 nM | MIC [7]: 0.015 µg/mL (≈ 0.0299 µM) | MIC ([8]; resistant to cefoxitin): 0.0625 µg/mL (≈ 0.124 µM) | E. coli N43 MIC in molar ([10]; E. coli CGSC# 5583, AcrA knockout strain): 0.16 µM | MIC [10, 15]: 0.16 µM | MIC [10, 16]: 0.078 µg/mL | Papp at 4 h [11]: > 2.7 ×10⁻⁶ cm/s | Papp at 4 h ([11]; pH 7.4): 39.8 ×10⁻⁶ cm/s | solubility thermodynamic at 24 h [12]: 184 µg/mL (≈ 366 µM)
